Assay [1] addresses T1, High affinity choline transporter 1 (Homo sapiens, UniProt Q9GZV3).
T1 sequence (Q9GZV3 whole entry): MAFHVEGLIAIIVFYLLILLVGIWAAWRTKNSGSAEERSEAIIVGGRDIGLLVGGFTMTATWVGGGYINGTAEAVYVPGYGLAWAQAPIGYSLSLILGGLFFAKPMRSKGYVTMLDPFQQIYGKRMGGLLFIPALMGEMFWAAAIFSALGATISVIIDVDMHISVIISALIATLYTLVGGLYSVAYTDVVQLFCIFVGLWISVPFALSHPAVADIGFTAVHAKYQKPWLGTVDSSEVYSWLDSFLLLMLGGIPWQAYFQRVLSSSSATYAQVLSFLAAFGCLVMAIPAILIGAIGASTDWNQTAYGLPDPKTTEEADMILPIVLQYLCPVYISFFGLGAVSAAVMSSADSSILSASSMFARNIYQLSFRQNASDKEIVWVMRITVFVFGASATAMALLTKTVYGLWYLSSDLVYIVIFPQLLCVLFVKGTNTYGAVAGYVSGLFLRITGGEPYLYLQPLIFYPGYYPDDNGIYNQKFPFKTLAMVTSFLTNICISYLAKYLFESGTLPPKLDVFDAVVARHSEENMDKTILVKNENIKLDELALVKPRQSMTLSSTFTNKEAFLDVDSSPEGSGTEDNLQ
Briefly: human choline transporter blockers, potency – cell-based, 10-point CRC, membrane potential dye, dose response (AID 588401).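 Also: membrane potential dye fluorescence of choline-evoked depolarization via CHT.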 Format: functional.

Assay [2] has as its target T1, High affinity choline transporter 1. Put plainly: human choline transporter blockers, potency – cell-based, 5-point CRC, membrane potential dye, dose response (AID 504840). Format: functional.
The test system of assay [3] is HEK293. Briefly: membrane integrity loss in HEK cells – cell-based, fluorescence, cytotoxicity control for IDE activator project, dose response (AID 588440).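 Also: cytotoxicity by LDH release measuring loss of membrane integrity.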 Format: functional. Conditions: Homo sapiens.
The target of assay [4] is T2, Multidrug resistance protein CDR2 (Candida albicans (strain SC5314 / ATCC MYA-2876) (Yeast), UniProt P78595). Briefly: blockers of Nile Red efflux by Candida CDR2 – S. cerevisiae AD1-8u, singleplex, Cherry Pick2 set, dose response (AID 623994). In kind it is functional. Conditions: read-out: EC50_MICROM.
T2 sequence (P78595 whole entry): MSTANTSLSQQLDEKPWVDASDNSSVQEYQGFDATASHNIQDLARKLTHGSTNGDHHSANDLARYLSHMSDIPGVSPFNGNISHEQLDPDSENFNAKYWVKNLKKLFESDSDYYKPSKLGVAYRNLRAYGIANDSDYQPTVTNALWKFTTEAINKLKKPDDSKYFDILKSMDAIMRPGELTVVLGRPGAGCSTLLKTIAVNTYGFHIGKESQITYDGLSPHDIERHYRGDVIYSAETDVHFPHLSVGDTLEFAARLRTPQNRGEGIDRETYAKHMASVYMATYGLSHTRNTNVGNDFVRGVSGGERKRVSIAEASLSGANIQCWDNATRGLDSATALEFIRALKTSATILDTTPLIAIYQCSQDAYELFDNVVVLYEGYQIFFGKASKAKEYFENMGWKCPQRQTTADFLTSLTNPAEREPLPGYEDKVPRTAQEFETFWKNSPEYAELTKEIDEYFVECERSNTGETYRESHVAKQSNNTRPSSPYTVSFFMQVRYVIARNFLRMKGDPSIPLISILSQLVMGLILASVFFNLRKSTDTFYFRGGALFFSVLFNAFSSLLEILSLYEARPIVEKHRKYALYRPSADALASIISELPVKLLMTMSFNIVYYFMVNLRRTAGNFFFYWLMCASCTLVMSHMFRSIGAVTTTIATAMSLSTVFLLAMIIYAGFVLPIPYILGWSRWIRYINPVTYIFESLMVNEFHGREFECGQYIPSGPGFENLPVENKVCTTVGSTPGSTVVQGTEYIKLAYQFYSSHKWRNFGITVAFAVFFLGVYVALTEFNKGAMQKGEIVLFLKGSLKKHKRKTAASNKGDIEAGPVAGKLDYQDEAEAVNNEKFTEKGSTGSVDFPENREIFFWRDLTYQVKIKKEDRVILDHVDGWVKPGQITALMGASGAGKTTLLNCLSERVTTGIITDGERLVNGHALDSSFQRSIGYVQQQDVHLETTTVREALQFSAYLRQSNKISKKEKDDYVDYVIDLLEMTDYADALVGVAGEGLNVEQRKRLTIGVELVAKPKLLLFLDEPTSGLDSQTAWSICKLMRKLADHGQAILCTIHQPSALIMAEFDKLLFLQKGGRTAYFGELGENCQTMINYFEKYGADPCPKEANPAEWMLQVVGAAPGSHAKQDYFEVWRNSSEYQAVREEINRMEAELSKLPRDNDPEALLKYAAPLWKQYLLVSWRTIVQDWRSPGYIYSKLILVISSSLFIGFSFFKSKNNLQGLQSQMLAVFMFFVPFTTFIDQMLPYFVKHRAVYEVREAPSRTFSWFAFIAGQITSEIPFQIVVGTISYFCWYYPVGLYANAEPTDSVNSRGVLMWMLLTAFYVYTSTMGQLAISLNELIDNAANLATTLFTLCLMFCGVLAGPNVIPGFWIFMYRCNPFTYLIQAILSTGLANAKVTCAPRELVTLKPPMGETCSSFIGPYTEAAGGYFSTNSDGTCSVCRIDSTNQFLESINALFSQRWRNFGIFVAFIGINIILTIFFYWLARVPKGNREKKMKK
Assay [5] has as its target T2, Multidrug resistance protein CDR2. Put plainly: inhibition of Nile Red efflux via Candida CDR2 – S. cerevisiae AD1-8u, singleplex, Cherry Pick1 hits, dose response (AID 588604). In kind it is functional.
For assay [6], the target named is Melanocortin receptor 4 (Homo sapiens, UniProt P32245). In kind it is functional, cell-based.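 Also: Cell-based assay with luminescence read-out, confirmatory dose-response testing for agonist activity of biased ligands at MC4R; human U2OS cells with tagged receptor and beta-arrestin; potency of agonists that increase receptor coupling to beta-arrestin.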
Melanocortin receptor 4, sequence (P32245 whole entry): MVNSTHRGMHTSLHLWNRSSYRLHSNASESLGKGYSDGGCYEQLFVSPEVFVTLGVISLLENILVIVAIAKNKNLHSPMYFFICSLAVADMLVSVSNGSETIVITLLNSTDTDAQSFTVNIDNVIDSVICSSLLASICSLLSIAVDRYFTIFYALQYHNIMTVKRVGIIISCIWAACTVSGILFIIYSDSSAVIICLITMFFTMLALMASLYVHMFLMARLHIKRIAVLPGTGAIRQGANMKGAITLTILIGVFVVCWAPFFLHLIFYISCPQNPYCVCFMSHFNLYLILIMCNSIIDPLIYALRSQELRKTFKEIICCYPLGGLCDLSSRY
Assay [7] deals with T3, Insulin-degrading enzyme (Homo sapiens, UniProt P14735).
T3 sequence (P14735 whole entry): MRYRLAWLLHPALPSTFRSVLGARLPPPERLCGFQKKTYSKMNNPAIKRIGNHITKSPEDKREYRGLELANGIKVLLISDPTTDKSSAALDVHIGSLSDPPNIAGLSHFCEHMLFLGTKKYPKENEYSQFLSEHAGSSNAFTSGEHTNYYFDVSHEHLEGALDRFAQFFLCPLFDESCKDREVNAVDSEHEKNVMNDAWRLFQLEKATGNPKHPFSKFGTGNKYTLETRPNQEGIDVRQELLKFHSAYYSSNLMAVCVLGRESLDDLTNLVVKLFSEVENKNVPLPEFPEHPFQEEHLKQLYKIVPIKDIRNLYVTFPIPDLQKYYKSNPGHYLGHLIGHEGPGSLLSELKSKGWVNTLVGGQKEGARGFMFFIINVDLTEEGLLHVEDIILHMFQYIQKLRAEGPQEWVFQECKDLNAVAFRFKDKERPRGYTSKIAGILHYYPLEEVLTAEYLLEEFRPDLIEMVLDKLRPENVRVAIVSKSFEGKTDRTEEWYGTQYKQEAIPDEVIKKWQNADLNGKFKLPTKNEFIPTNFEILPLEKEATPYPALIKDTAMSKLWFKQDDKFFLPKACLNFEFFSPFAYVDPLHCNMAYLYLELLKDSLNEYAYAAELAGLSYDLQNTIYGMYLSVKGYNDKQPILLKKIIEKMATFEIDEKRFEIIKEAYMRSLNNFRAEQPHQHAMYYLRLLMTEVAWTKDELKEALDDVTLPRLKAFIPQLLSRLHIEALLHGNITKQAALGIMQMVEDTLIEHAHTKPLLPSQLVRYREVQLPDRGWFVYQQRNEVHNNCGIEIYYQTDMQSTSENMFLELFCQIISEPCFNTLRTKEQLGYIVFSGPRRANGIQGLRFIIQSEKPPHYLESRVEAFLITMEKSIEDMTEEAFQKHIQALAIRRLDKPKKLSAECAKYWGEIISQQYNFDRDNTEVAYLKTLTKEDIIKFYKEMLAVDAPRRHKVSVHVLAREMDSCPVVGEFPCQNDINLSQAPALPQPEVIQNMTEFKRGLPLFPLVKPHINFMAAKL
Briefly: recombinant IDE activation, cell-free – biochemical, fluorescence polarization, counter-screen for IDE activator project, dose response (AID 588681). A general note: In fluorescence polarisation assays a small probe gives low polarisation when free and higher when bound to something large.

The target in assay [8] is T3, Insulin-degrading enzyme. Briefly: cellular IDE activation of Abeta substrate cleavage – fluorescence polarization, HEK cells, dose response (AID 588439). Format: functional, cell-based.
Assay [9] deals with HEK293. Put plainly: optical interference in Abeta FP readout, dose response, artefact control for IDE activator project, biochemical, fluorescence polarization (AID 588442). In kind it is functional, cell-based. To be noted: Homo sapiens.
In assay [10] the target is Melanin-concentrating hormone receptor 1 (Homo sapiens, UniProt Q99705). Briefly: Late-stage fluorescence-based counterscreen for antagonists of the G-protein coupled receptor 7 (GPR7): cell-based dose response assay to identify antagonists of the melanin-concentrating hormone receptor 1 (MCHR1) Set 5. Format: functional. Background: The purpose of a counterscreen is to sort out artefacts and off-target activity.
Melanin-concentrating hormone receptor 1, sequence (Q99705 whole entry): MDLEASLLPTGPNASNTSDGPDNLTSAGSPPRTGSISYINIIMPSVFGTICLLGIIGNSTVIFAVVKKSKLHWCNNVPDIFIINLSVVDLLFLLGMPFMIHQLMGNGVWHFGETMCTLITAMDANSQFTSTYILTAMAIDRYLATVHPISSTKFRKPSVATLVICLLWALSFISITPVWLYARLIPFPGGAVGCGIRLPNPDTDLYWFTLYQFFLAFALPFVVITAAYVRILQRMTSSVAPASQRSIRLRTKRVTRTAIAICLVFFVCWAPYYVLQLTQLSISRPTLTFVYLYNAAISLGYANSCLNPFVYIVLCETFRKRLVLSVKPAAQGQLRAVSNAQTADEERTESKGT

Assay [11] concerns the target T4, Neuropeptides B/W receptor type 1 (Homo sapiens, UniProt P48145).
T4 sequence (P48145 whole entry): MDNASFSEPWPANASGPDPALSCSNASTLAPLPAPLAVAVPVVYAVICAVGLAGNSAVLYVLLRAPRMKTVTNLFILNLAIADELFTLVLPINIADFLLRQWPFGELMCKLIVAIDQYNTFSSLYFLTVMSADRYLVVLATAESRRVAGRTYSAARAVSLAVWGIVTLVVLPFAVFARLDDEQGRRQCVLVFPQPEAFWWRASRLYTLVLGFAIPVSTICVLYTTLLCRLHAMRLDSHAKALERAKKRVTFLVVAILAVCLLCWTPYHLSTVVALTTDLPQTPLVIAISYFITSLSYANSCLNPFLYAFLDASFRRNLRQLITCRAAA
Briefly: human NPBW1 receptor blockade, IC50 – cell-based, fluorescence, dose response, set 5, late-stage follow-up (AID 588566). Format: functional.

Activity calls are given as the source filed them.

The term IC50 denotes the concentration needed to halve the response being measured. Regarding `CCOc1ccccc1Nc1ccc2nonc2c1[N+](=O)[O-]`, the results for the IC50 in assay [1] and in [2] were 4.28 µM (active) and 7.88 µM (active), respectively.

Turning to `Cc1ccc2sc(N(CCCN(C)C)C(=O)c3ccc(Br)s3)nc2c1C`, in assay [3], the IC50 was 35.3 µM (inactive). Also, the EC50 in [4] was 50.5 µM (active); in assay [5], 10.3 µM (active); in assay [6], > 89.2 µM (inactive); in assay [7], > 54.7 µM (inactive); in assay [8], 20.1 µM (inactive); in assay [9], > 54.7 µM (inactive).

For the compound `Cc1ccc(Oc2c(Cl)cnn(Cc3cccc4ccccc34)c2=O)cc1`, the figures for the IC50 in assay [10] and in [11] were 8.23 µM (active) and 2.57 µM (active), respectively.

For the origin of these results see ChEMBL document CHEMBL1201862, “PubChem BioAssay data set” (2004).
